Measurements reported in patent publication US6602888B2, “Use of α1C specific compounds to treat benign prostatic hyperplasia” (Synaptic Pharmaceutical Corporation, priority 1992, dated 2003).
Where a name gives a salt, the structure may show the parent alone. Read-outs that look alike come from different tables or passages of the source.

Legend:
[1] = test system: 5-α-reductase; details: BPH patients; cited from earlier work
[2] = molecular target: T1, calcium channels (Rattus norvegicus, UniProt P22002); experiment: [3H]nitrendipine competition binding, calcium channels, rat cardiac muscle membranes; details: Table 2, rat cardiac muscle membranes; read-out: Calcium Channel (pK1) (converted)
T1 construct: from tissue; host or cells: rat cardiac muscle membranes
Description: Briefly, the tissue was minced and homogenized in 50 mM Tris-HCl (pH 7.4) containing 0.1 mM phenylmethylsulfonyl fluoride. The homogenates were centrifuged at 1000 g for 15 minutes, the resulting supernatant was centrifuged at 45,000 g for 15 minutes. The 45,000 g pellet was suspended in buffer and centrifuged a second time.

[3] = test system: Sprague-Dawley normotensive rats; experiment: Rat orthostatic hypotension model; type: in vivo; details: for BP fall / orthostatic fall in BP: i.v.; for orthostatic fall in BP: second tilt
Description: Adult male Sprague-Dawley normotensive rats were anesthetized with sodium pentobarbital (45 mg/kg, i.v.). The femoral vein and artery of the right hindlimb were cannulated for drug administration and blood pressure monitoring, respectively. Heart rate was determined by a cardiotachometer triggered by the blood pressure pulse. The rats were secured in the supine position to a board that could be tilted 90 degrees. When blood pressure and heart rate had stabilized, the rats were subjected to a 90 degree vertical (head up) tilt for 60 seconds. Changes in blood pressure and heart rate from pre-tilt levels were monitored continuously. The rats were returned to the supine position and blood pressure and heart rate were allowed to stabilize. […] When blood pressure had stabilized, the rats were subjected to a second tilt and blood pressure and heart rate were recorded as described above. […] Data from the second tilt are used in statistical analysis.

[4] = test system: human prostate tissue; experiment: Antagonism of phenylephrine-induced contraction of human prostatic tissue; details: pA2, phenylephrine-induced contraction, dose-ratio method
Description: An index of this efficacy can be obtained by determining the potency of α1 antagonists to antagonize the contraction of human prostatic tissue induced by an α1 agonist “in vitro”.
Prostatic adenomas were obtained at the time of surgery from patients with symptomatic BPH. […] Isometric tension was measured with a Grass Instrument FT03 force transducer interfaced with a computer. Tissue strips were contracted with varying concentrations of phenylephrine after incubating for 20 minutes in the absence and presence of at least three different concentrations of antagonist. Dose-response curves for phenylephrine were constructed, and the antagonist potency (pA2) was estimated by the dose-ratio method.

[5] = molecular target: T2, human histamine H2 receptor (Homo sapiens, UniProt P25021); experiment: [3H]tiotidine binding, histamine H2 receptor; details: Table 2, cloned human receptor; read-out: Histamine H2 (pK1) (converted)
T2 construct: host or cells: COS-7, transient, DEAE-dextran
From the text: The coding sequence of the human H2 receptor was obtained from a human placenta genomic library, and cloned into the cloning site of PCEXV-3 eukaryotic expression vector. The plasmid DNA for the H2 receptor is designated pcEXV-H2, and was deposited on Nov. […] This construct was transfected into COS-7 cells by the DEAE-dextran method.

[6] = molecular target: T3, human D2 receptor (Homo sapiens, UniProt P14416); experiment: [3H]spiperone binding, dopamine D2 receptor
T3 construct: host or cells: COS-7, transient, DEAE-dextran
Description: The potency of α1 antagonists at the D2 receptor was determined using membrane preparations from COS-7 cells transfected with the gene encoding the human D2 receptor. The coding region for the human D2 receptor was obtained from a human striatum cDNA library, and cloned into the cloning site of PCDNA 1 eukariotic expression vector. The plasmid DNA for the D2 receptor is designated pcEXV-D2, and was deposited on Nov. […] This construct was transfected into COS-7 cells by the DEAE-dextran method. […] The cell lysates were incubated with [3H]spiperone (2 nM), using 10 μM (+)Butaclamol to determine nonspecific binding.

[7] = molecular target: T4, human histamine H1 receptor (Homo sapiens, UniProt P35367); experiment: [3H]mepyramine binding, histamine H1 receptor
T4 construct: host or cells: COS-7, transient, DEAE-dextran
From the text: The coding sequence of the human histamine H1 receptor, homologous to the bovine H1 receptor, was obtained from a human hippocampal cDNA library, and was cloned into the eukaryotic expression vector pCEXV-3. The plasmid DNA for the H1 receptor is designated pcEXV-H1, and was deposited on Nov. […] This construct was transfected into COS-7 cells by the DEAE-dextran method.

[8] = molecular target: T5, human 5HT1Dα receptor (Homo sapiens, UniProt P28221); experiment: [3H]serotonin competition binding, 5HT1Dα receptor
T5 construct: host or cells: LM(tk-) clonal cell line Ltk-8-30-84
Description: (§1) 5HT1Dα, 5HT1Dβ, 5HT1E, 5HT1F Receptors: The cell lysates of LM(tk−) clonal cell line stably transfected with the genes encoding each of these 5HT receptor-subtypes were prepared as described above. The cell line for the 5HT1Dα receptor, designated as Ltk-8-30-84, was deposited on Apr. […] The cell for the 5HT1Dβ receptor, designated as Ltk-11, was deposited on Apr. […] The cell line for the 5HT1E receptor, designated 5 HT1E-7, was deposited on Nov. […] The cell line for the 5HT1F receptor, designated L-5-HT1F, was deposited on Dec. […] These preparations were suspended in 50 mM Tris-HCl buffer (pH 7.4 at 37° C.) containing 10 mM MgCl2, 0.2 mM EDTA, 10 μM pargyline, and 0.1% ascorbate.

[9] = molecular target: T6, human 5HT1Dβ receptor (Homo sapiens, UniProt P28222); experiment: [3H]serotonin competition binding, 5HT1Dβ receptor
T6 construct: host or cells: LM(tk-) clonal cell line Ltk-11
Description: as §1

[10] = molecular target: T7, human 5HT1E receptor (Homo sapiens, UniProt P28566); experiment: [3H]serotonin competition binding, 5HT1E receptor
T7 construct: host or cells: LM(tk-) clonal cell line 5HT1E-7
Description: as §1

[11] = molecular target: T8, human 5HT1F receptor (Homo sapiens, UniProt P30939); experiment: [3H]serotonin competition binding, 5HT1F receptor
T8 construct: host or cells: LM(tk-) clonal cell line L-5-HT1F
T8 sequence (P30939 1-366): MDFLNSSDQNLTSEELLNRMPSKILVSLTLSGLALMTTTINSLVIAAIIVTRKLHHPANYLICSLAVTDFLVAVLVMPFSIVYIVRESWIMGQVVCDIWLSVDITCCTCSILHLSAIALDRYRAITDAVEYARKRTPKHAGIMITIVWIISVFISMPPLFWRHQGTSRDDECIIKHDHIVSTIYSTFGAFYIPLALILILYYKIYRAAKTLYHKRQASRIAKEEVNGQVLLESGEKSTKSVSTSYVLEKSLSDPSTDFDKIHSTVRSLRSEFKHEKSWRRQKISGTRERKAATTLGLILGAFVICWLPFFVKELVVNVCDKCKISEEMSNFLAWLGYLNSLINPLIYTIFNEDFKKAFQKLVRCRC
Description: as §1

[12] = molecular target: T9, human 5HT2 receptor (Homo sapiens, UniProt P28223); experiment: [3H]ketanserin competition binding, 5HT2 receptor
T9 construct: host or cells: COS-7 (DEAE-dextran); the same paragraph also names a deposited line L-NGC-5HT2
Description: The coding sequence of the human 5HT2 receptor was obtained from a human brain cortex cDNA library, and cloned into the cloning site of pCEXV-3 eukaryotic expression vector. This construct was transfected into COS-7 cells by the DEAE-dextran method. […] Nonspecific binding was defined by the addition of 10 μM mianserin.

T2 sequence (P25021 whole entry): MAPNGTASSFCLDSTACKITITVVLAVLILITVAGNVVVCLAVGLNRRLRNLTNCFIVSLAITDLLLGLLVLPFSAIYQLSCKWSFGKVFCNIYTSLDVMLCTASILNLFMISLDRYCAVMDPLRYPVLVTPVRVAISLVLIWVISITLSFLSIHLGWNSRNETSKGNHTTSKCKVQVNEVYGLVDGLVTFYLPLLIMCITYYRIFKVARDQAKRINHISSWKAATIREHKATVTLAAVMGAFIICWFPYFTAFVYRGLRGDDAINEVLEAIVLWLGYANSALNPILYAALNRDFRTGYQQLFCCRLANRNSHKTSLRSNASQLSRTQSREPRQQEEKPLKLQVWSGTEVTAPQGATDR
T3 sequence (P14416 whole entry): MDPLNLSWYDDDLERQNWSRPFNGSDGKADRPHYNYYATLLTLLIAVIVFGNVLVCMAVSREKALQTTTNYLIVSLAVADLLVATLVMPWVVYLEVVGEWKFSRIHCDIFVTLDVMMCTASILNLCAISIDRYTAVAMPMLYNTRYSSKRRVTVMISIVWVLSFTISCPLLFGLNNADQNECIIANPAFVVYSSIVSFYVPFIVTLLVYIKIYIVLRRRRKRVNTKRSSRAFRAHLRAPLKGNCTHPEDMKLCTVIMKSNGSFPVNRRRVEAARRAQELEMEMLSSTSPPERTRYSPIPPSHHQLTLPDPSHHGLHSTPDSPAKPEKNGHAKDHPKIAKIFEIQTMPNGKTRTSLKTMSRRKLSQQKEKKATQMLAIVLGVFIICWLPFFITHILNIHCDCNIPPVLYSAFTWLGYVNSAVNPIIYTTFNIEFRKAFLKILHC
T6 sequence (P28222 whole entry): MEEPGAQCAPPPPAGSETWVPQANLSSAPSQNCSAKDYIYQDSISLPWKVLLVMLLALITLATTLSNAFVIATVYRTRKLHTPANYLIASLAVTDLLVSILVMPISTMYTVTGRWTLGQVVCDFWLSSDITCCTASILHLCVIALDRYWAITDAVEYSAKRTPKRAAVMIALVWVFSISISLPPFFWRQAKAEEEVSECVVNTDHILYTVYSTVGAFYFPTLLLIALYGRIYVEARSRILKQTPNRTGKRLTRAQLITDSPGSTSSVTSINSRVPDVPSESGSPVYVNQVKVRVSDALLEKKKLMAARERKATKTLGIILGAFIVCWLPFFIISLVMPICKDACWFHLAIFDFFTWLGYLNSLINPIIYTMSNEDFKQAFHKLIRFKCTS
T5 sequence (P28221 whole entry): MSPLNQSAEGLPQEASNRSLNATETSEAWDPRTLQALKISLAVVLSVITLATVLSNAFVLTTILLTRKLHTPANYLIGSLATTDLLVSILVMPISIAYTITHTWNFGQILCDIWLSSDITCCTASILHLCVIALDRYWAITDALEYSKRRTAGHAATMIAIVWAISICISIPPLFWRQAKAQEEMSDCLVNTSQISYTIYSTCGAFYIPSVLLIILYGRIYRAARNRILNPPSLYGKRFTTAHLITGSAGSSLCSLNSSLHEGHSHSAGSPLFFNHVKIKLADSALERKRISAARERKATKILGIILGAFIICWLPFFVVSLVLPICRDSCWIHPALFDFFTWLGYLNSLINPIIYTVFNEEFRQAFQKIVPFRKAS
T4 sequence (P35367 whole entry): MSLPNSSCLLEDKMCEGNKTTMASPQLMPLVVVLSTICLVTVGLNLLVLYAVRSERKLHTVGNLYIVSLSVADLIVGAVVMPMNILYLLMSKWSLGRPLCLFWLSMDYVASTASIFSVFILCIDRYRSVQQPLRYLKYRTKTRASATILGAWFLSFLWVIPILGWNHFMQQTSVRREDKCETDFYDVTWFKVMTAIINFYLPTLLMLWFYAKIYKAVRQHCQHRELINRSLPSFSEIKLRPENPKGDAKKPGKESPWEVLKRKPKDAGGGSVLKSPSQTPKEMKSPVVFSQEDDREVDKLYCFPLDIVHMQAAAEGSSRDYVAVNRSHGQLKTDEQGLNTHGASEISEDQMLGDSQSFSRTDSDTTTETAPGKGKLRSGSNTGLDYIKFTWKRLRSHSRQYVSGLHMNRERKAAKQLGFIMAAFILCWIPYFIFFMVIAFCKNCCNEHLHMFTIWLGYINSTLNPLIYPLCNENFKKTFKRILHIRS
T7 sequence (P28566 whole entry): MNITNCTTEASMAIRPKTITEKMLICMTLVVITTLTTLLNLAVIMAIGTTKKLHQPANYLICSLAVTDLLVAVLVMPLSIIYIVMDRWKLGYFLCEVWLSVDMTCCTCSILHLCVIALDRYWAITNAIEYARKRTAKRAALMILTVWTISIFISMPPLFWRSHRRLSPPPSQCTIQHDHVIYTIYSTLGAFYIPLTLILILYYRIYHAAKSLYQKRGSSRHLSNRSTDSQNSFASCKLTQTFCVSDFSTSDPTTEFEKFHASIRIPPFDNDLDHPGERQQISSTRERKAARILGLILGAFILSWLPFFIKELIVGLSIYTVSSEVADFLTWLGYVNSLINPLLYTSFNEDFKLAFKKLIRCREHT
T9 sequence (P28223 whole entry): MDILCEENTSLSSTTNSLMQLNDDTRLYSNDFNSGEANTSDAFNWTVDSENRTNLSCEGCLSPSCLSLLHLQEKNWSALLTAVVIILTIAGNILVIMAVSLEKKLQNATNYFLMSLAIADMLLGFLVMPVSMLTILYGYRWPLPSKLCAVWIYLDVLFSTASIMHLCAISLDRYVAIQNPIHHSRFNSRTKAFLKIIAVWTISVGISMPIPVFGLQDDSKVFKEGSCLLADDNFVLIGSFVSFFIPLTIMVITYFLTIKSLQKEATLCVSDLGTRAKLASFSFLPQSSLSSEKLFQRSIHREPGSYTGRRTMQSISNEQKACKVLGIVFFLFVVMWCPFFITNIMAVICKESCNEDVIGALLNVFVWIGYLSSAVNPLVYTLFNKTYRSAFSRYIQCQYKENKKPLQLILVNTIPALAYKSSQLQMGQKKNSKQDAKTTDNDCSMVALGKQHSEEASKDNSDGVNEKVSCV

Compound: CC(C)(C)NC(=O)[C@H]1CC[C@H]2[C@@H]3CC[C@H]4NC(=O)C=C[C@]4(C)[C@H]3CC[C@]12C [Proscar]
- patients in whom effective [1]: 30%
- period required to show results [1]: up to 6 months

Compound: COc1cc2nc(N3CCN(C(=O)c4ccco4)CC3)nc(N)c2cc1OC [Prazosin]
- Ki [2]: 26.9 µM
- BP fall ([3]; Dose 1, 10 ug/kg): +
- orthostatic fall in BP ([3]; Dose 1, 10 ug/kg): +
- BP fall ([3]; Dose 2, 100 ug/kg): ++
- orthostatic fall in BP ([3]; Dose 2, 100 ug/kg): ++ or +++
- BP fall ([3]; Dose 3, 1000 ug/kg): +++
- orthostatic fall in BP ([3]; Dose 3, 1000 ug/kg): ++ or +++
- orthostasis (Table 3) ([3]; doses 10, 100, 1000 ug/kg): consistently cause orthostasis at the lowest dose
- Human Prostate (pA) [4]: 9.08

Compound: COc1cc2nc(N3CCN(C(=O)C4CCCO4)CC3)nc(N)c2cc1OC (stereo not drawn) [Terazosin, 2 [4-(Tetrahydro-2-furoyl)piperazinyl]-4-amino-6,7-dimethoxyquinazoline hydrochloride, reference compound]
- Ki [5]: 9.12 µM
- Ki ([6]; Table 2, cloned human receptor, read-out: Dopamine D2 (pK1)): > 10 µM
- Human Prostate (pA) [4]: 7.30

Compound: O=C(CCCN1CCC(NC(=O)c2ccccc2)CC1)c1ccc(Cl)cc1 (as salt: HCl) [Example 4, 1-[3-(4-chlorobenzoyl)propyl]-4-benzamidopiperidine]
- melting point: 243 to 244 °C

Compound: COC(=O)C1=C(C)NC(C)=C(C(=O)NCCCN2CCC(c3ccccc3)(c3ccccc3)CC2)C1c1ccc([N+](=O)[O-])cc1.Cl.O (stereo not drawn) [Compound 2, 2,6-Dimethyl-4-(4-nitrophenyl)-1,4-dihydropyridine-3,5-dicarboxylic acid N-[3-(4,4-diphenylpiperidin-1-yl)-propyl]amide methyl ester hydrochloride hydrate]
- Ki [7]: 69.2 nM
- Ki [5]: 0.0331 µM
- Ki [8]: > 100 nM
- Ki [9]: > 1000 nM
- Ki [10]: > 10 µM
- Ki [11]: > 10 µM
- Ki [12]: > 1000 nM
- Ki [6]: > 0.1 µM
- Human Prostate (pA) [4]: 8.94
